Measurements reported in patent US20140275275A1, “Chlorhexadine Antiseptic” (CARNELL & HERZOG, LLC, priority 2013, published 2014).

System: methicillin-resistant Staphylococcus aureus
Test: In-vitro time-kill test on S. aureus (MRSA)
Conditions: for Post-exposure population: inoculum 1.460×10^7 CFU/ML
Method: This example compares the test composition to a solution of 4% chlorhexidine gluconate. The microorganism used in the test was methicillin-resistant Staphylococcus aureus.
An in-vitro time-kill test was performed on S. aureus using both the test composition and the solution of 4% chlorhexidine gluconate. A S. aureus suspension with an inoculum level of 1.460×10^7 colony-forming units (CFU)/ML was used for all tests. A 0.1 mL aliquot of the S. aureus suspension was added to 9.9 mL of the test composition or the 4% chlorhexidine gluconate solution and exposed for periods of one minute, five minutes, and 10 minutes. At the end of each exposure period, a neutralizer was added to stop the bactericidal activity.

## N=C(NCCCCCCNC(=N)NC(=N)Nc1ccc(Cl)cc1)NC(=N)Nc1ccc(Cl)cc1.O=C(O)[C@H](O)[C@@H](O)[C@H](O)[C@H](O)CO.O=C(O)[C@H](O)[C@@H](O)[C@H](O)[C@H](O)CO [4% chlorhexidine gluconate, chlorhexidine gluconate]
Exposure 1 minute
  Log10 reduction: 4.0798 Log10
  Percent reduction: 99.9917%
  Post-exposure population: 1.2150 × 10^3 CFU/ML
Exposure 5 minutes
  Log10 reduction: 6.1644 Log10
  Percent reduction: 99.9999%
  Post-exposure population: <1.00 × 10^1 CFU/ML
Exposure 10 minutes
  Log10 reduction: 6.1644 Log10
  Percent reduction: 99.9999%
  Post-exposure population: <1.00 × 10^1 CFU/ML
